Laboratory results published in US5561234A, “1-(7-chloroquinolin-4-yl)pyrazole-3-carboxamide N-oxide derivatives, method of preparing them, and their pharmaceutical compositions” (Sanofi, priority 1994, dated 1996).
≈ marks a conversion by molar mass, not a printed value. Like-named read-outs stand apart in the source and are kept apart here.

Test: comparative solubility study, saturated solutions at 25° C., assayed by liquid chromatography
Assay type: physicochemical
Method: The media studied are water, ethanol and a water/polyethylene glycol 400 mixture (70/30 v/v).
The solubility measurements were made at 25° C. after stirring of the saturated solutions for 3 or 5 hours.
After achieving conditions under which the products solubilized in water are not adsorbed on certain filters, the solutions are filtered and then assayed by liquid chromatography (column μmBondapak C18, eluent acetonitrile/trifluoroacetic acid, detection at 254 nm, flow rate 1 ml/minute).

[1] = organic solvent or mixture, ethanol, stirring of saturated solution for 3 or 5 hours, read-out: solubility in ethanol
[2] = water, stirring of saturated solution for 3 or 5 hours, read-out: solubility in water
[3] = water/peg 400 70/30, organic solvent or mixture, water/polyethylene glycol 400 mixture (70/30 v/v), stirring for 3 or 5 hours, read-out: solubility in water/PEG

Compound | solubility [1] | solubility [2] | solubility [3]
COc1cccc(OC)c1-c1cc(C(=O)NC2(C(=O)O)C3CC4CC(C3)CC2C4)nn1-c1cc[n+]([O-])c2cc(Cl)ccc12 (stereo not drawn) [EXAMPLE 2, 2-{[1-(1-oxido-7-chloroquinolin-4-yl)-5-(2,6-dimethoxyphenyl)-pyrazol-3-yl]carbonylamino}adamantane-2-carboxylic acid] | 10.3 mg/mL (≈ 17100 µM) | 0.0017 mg/mL (≈ 2.82 µM) | 0.03 mg/mL (≈ 49.7 µM)
COc1cccc(OC)c1-c1cc(C(=O)NC2(C(=O)O)C3CC4CC(C3)CC2C4)nn1-c1ccnc2cc(Cl)ccc12 (stereo not drawn) [SR48692, 2-{[1-(7-Chloroquinolin-4-yl)-5-(2,6-dimethoxyphenyl)pyrazol-3-yl]carbonylamino}adamantane-2-carboxylic acid] | 1.3 mg/mL (≈ 2210 µM) | 0.0004 mg/mL (≈ 0.681 µM) | < 0.001 mg/mL
